Source: BindingDB's records for doi:10.1016/j.ejmech.2011.10.051 (University of The Mediterranean, 2012)

Tests used:
[1] = Inhibition of Met-mediated tumorigenesis in HGF-stimulated human HepG2 cells assessed as impairment in anchorage-independent growth by soft agar growth assay
[2] = Inhibition of Met-mediated tumorigenesis in HGF-stimulated human GTL16 cells assessed as impairment in anchorage-independent growth by soft agar growth assay
[3] = Inhibition of TPR-fused MET-mediated mouse BA/F3 cell proliferation after 48 hrs by cell titre blue based spectrophotometry
[4] = Inhibition of Met-mediated scattering in HGF-stimulated […] cells pre-incubated overnight prior to HGF stimulation for 24 hrs measured after 24 to 48 hrs

Row | IC50 [1] [nM] | IC50 [2] [nM] | IC50 [3] [nM] | IC50 [4] [nM] | Compound
1 | 321 | 811 | 4000 | 171 | O=C(Cc1cc(C(F)(F)F)cc(C(F)(F)F)c1)N[C@@H](Cc1ccccc1)C(=O)Nc1ccc(-c2cn3c(n2)sc2ccccc23)cc1
2 | 620 | 1190 | – | 206 | O=C(Cc1cc(C(F)(F)F)cc(C(F)(F)F)c1)N[C@H](Cc1ccccc1)C(=O)Nc1ccc(-c2cn3c(n2)sc2ccccc23)cc1
3 | 1560 | 228 | – | 152 | Cc1[nH]c(/C=C2\C(=O)Nc3ccc(S(=O)(=O)N(C)c4cccc(Cl)c4)cc32)c(C)c1C(=O)N1CCN(C)CC1 [(3Z)-N-(3-CHLOROPHENYL)-3-({3,5-DIMETHYL-4-[(4-METHYLPIPERAZIN-1-YL)CARBONYL]-1H-PYRROL-2-YL}METHYLENE)-N-METHYL-2-OXOINDOLINE-5-SULFONAMIDE]
